The record followed here is ChEMBL document CHEMBL1145650, “5-Aryluracils as potent GnRH antagonists-Characterization of atropisomers” (Bioorg Med Chem Lett, 2008).

SMILES strings stand for the structures.

For experiment [1], the target named is T1, Gonadotropin-releasing hormone receptor (Homo sapiens, UniProt P30968).
T1 sequence (P30968 whole entry): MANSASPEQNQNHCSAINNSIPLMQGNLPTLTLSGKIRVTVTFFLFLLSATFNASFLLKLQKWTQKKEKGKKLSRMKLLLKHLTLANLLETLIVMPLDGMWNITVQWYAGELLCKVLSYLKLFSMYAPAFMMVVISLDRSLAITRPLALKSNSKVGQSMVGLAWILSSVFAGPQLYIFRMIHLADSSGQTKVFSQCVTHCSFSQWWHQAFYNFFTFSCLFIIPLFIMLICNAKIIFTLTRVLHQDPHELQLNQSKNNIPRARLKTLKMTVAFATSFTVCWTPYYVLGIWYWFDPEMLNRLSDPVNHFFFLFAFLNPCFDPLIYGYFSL
Briefly: Binding affinity to human GnRHR.

In experiment [2] the target is T1, Gonadotropin-releasing hormone receptor. The experiment in a line: Antagonist activity at human GnRHR assessed as inhibition of calcium flux by IP3 assay. Format: functional.

As usually defined, the Ki is the equilibrium dissociation constant of an inhibitor or competing ligand from its target. For `CC[C@H](Cn1c(=O)c(-c2cccc(OC)c2F)c(C)n(Cc2c(F)cccc2C(F)(F)F)c1=O)NC1CCCC1`, the affinity in experiment [1], expressed as Ki, was 20 nM.

By IC50 is commonly meant the concentration that inhibits the measured activity by half. Consider `COc1cccc(-c2c(C)n(Cc3c(F)cccc3C(F)(F)F)c(=O)n(C[C@H](C)NC3CCCC3)c2=O)c1F`, for which the affinity in experiment [1] corresponds to a Ki of 0.61 nM. In addition, the IC50 in experiment [2] came out at 3.3 nM.

As for `COc1cccc(-c2c(C)n(Cc3c(F)cccc3C(F)(F)F)c(=O)n(C[C@H](C)NC3CCCC3)c2=O)c1`, the Ki in experiment [1] was found to be 4.5 nM.

In experiment [1], `CC[C@@H](Cn1c(=O)c(-c2cccc(OC)c2F)c(C)n(Cc2c(F)cccc2C(F)(F)F)c1=O)NC1CCCC1` yielded a Ki of 4.2 nM.

In experiment [1], `CC[C@H](Cn1c(=O)c(-c2cccc(OC)c2Cl)c(C)n(Cc2c(F)cccc2C(F)(F)F)c1=O)NC1CCCC1` showed a Ki of 7.4 nM.

As for `COc1cccc(-c2c(C)n(Cc3c(F)cccc3C(F)(F)F)c(=O)n(C[C@@H](C)NC3CCCC3)c2=O)c1F`, the Ki in experiment [1] was 33 nM.

`COc1cccc(-c2c(C)n(Cc3c(F)cccc3C(F)(F)F)c(=O)n(C[C@H](CO)NC3CCCC3)c2=O)c1Cl`: the Ki in experiment [1] turned out to be 0.7 nM. The IC50 in experiment [2] is 5.4 nM.

Take `CC[C@@H](Cn1c(=O)c(-c2cccc(OC)c2Cl)c(C)n(Cc2c(F)cccc2C(F)(F)F)c1=O)NC1CCCC1`: the Ki in experiment [1] came to 3.7 nM.

Take `COc1cccc(-c2c(C)n(Cc3c(F)cccc3F)c(=O)n(C[C@H](CO)NC3CCCC3)c2=O)c1F`: in experiment [1], the Ki was determined as 4.9 nM.

Turning to `COc1cccc(-c2c(C)n(Cc3c(F)cccc3C(F)(F)F)c(=O)n(C[C@H](CO)NC3CCCC3)c2=O)c1Cl` (atropisomer R), the Ki in experiment [1] is 0.36 nM. Also, in experiment [2], the IC50 was found to be 2.6 nM.

In experiment [1], `COc1cccc(-c2c(C)n(Cc3c(F)cccc3C(F)(F)F)c(=O)n(C[C@H](CO)NC3CCCC3)c2=O)c1Cl` (single isomer, unassigned; atropisomer) showed a Ki of 190 nM. Besides, the IC50 in experiment [2] stood at 2500 nM.

In the case of `COc1cccc(-c2c(C)n(Cc3c(F)cccc3C(F)(F)F)c(=O)n(C[C@H](C)NC3CCCC3)c2=O)c1Cl` (single isomer, unassigned; form 1), in experiment [1], the Ki was 61 nM. Besides, in experiment [2], the IC50 came out at 385 nM.

Take `COc1cccc(-c2c(C)n(Cc3c(F)cccc3C(F)(F)F)c(=O)n(C[C@H](C)NC3CCCC3)c2=O)c1Cl` (single isomer, unassigned; form 2): in experiment [1], the affinity corresponds to a Ki of 0.3 nM. In addition, the IC50 in experiment [2] was 1.5 nM.
